Laboratory results as given in PubChem BioAssay AID248 (DTP/NCI, 2004).
Values joined by “and” are separate entries in the source; they are usually repeats but may differ in a detail not shown here. Equal values may be shown once. Inconclusive results and toxic doses are left out. Rule as the data show it: active = T/C of 150% or more; inactive = T/C below 125%.

System: L1210 leukemia ip in BDF1 mice, survival T/C
Assay: NCI In Vivo Anticancer Drug Screen. Data for tumor model L1210 Leukemia (intraperitoneal) in B6D2F1 (BDF1) mice
Settings: endpoint: mean survival time, higher = longer survival
Method in brief: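 Tumor cells were implanted, animals were treated, and survival was followed. The result divides the treated measurement by the vehicle-control measurement.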

[1] = dose: 100.0 mg/kg/injection, schedule: Q01DX001 (ip), vehicle: saline with Tween-80
[2] = dose: 100.0 mg/kg/injection, schedule: Q04DX003 (ip), vehicle: Klucel (hydroxypropylcellulose) (HPC)
[3] = dose: 200.0 mg/kg/injection, schedule: Q04DX003 (ip), vehicle: Klucel (hydroxypropylcellulose) (HPC)
[4] = dose: 50.0 mg/kg/injection, schedule: Q01DX001 (ip), vehicle: saline
[5] = dose: 100.0 mg/kg/injection, schedule: Q01DX001 (ip), vehicle: saline
[6] = dose: 200.0 mg/kg/injection, schedule: Q01DX001 (ip), vehicle: saline
[7] = dose: 400.0 mg/kg/injection, schedule: Q01DX001 (ip), vehicle: saline
[8] = dose: 100.0 mg/kg/injection, schedule: Q01DX009 (ip), vehicle: Klucel (hydroxypropylcellulose) (HPC)
[9] = dose: 100.0 mg/kg/injection, schedule: Q01DX009 (ip), vehicle: saline
[10] = dose: 200.0 mg/kg/injection, schedule: Q01DX009 (ip), vehicle: Klucel (hydroxypropylcellulose) (HPC)
[11] = dose: 200.0 mg/kg/injection, schedule: Q01DX009 (ip), vehicle: saline
[12] = dose: 400.0 mg/kg/injection, schedule: Q01DX009 (ip), vehicle: saline
[13] = dose: 400.0 mg/kg/injection, schedule: Q04DX003 (ip), vehicle: Klucel (hydroxypropylcellulose) (HPC)
[14] = dose: 100.0 mg/kg/injection, schedule: Q01DX001 (ip), vehicle: carboxymethylcellulose (CMC)
[15] = dose: 400.0 mg/kg/injection, schedule: Q01DX001 (ip), vehicle: carboxymethylcellulose (CMC)
[16] = dose: 100.0 mg/kg/injection, schedule: Q01DX009 (ip), vehicle: saline with Tween-80
[17] = dose: 100.0 mg/kg/injection, schedule: Q04DX003 (ip), vehicle: saline
[18] = dose: 200.0 mg/kg/injection, schedule: Q04DX003 (ip), vehicle: saline
[19] = dose: 400.0 mg/kg/injection, schedule: Q04DX003 (ip), vehicle: saline
[20] = dose: 400.0 mg/kg/injection, schedule: Q01DX009 (ip), vehicle: Klucel (hydroxypropylcellulose) (HPC)
[21] = dose: 300.0 mg/kg/injection, schedule: Q01DX001 (ip), vehicle: carboxymethylcellulose (CMC)

Measured: T/C

CC(/C=C/c1ccccc1Cl)=N\NC(=O)c1ccncc1
inactive: [1] 95 % of control | dose: 200.0 mg/kg/injection, schedule: Q01DX001 (ip), vehicle: saline with Tween-80 95 % of control | dose: 400.0 mg/kg/injection, schedule: Q01DX001 (ip), vehicle: saline with Tween-80 90 % of control

CC(=O)C(C(=O)c1ccccc1)c1cc(NS(=O)(=O)N(C)C)ccc1NS(=O)(=O)N(C)C (centres undefined)
inactive: dose: 25.0 mg/kg/injection, schedule: Q01DX001 (ip), vehicle: saline with Tween-80 98 % of control | dose: 50.0 mg/kg/injection, schedule: Q01DX001 (ip), vehicle: saline with Tween-80 93 % of control | [1] 100 % of control

Nc1cc[n+](-c2ccc([N+](=O)[O-])cc2[N+](=O)[O-])cc1
inactive: dose: 12.5 mg/kg/injection, schedule: Q01DX009 (ip), vehicle: Klucel (hydroxypropylcellulose) (HPC) 98 % of control | dose: 25.0 mg/kg/injection, schedule: Q01DX009 (ip), vehicle: Klucel (hydroxypropylcellulose) (HPC) 100 % of control

CCOC(=O)C(C1=NC(C)(C)CC(C)O1)C1CCCCC1 (centres undefined)
inactive: dose: 100.0 mg/kg/injection, schedule: Q04DX003 (ip), vehicle: saline sonified 115 % of control | dose: 200.0 mg/kg/injection, schedule: Q04DX003 (ip), vehicle: saline sonified 102 % of control | dose: 400.0 mg/kg/injection, schedule: Q04DX003 (ip), vehicle: saline sonified 108 % of control

CCOC(=O)c1[nH]c(C)c(C)c1-c1ccccc1
inactive: [2] 109 % of control | [3] 94 % of control

OCCCc1ccccc1O
inactive: [4] 102 % of control | [5] 102 % of control | [6] 94 % of control | [7] 91 % of control

O=C(O)CC(NC(=O)OCc1ccccc1)C(=O)O (centres undefined)
inactive: dose: 50.0 mg/kg/injection, schedule: Q01DX009 (ip), vehicle: Klucel (hydroxypropylcellulose) (HPC) 95 % of control | [8] 92 % of control | [9] 114 % of control | [10] 98 % of control | [11] 113 % of control | [12] 107 % of control

CC(CCc1cccc2ccccc12)C(=O)O (centres undefined)
inactive: [2] 103 % of control | [3] 100 % of control | [13] 105 % of control

COc1ccccc1CN1CCCN(Cc2ccccc2OC)C1c1cc(Br)c(OC)c(OC)c1
inactive: [14] 91 % of control | dose: 200.0 mg/kg/injection, schedule: Q01DX001 (ip), vehicle: carboxymethylcellulose (CMC) 91 % of control | [15] 87 % of control

O=C1OC2CC1(O)CC(O)C2O (centres undefined)
inactive: dose: 50.0 mg/kg/injection, schedule: Q01DX009 (ip), vehicle: saline with Tween-80 92 % of control | [16] 94 % of control | dose: 200.0 mg/kg/injection, schedule: Q01DX009 (ip), vehicle: saline with Tween-80 92 % of control

CN(C)c1ccc(N(C)C)nn1
inactive: [16] 104 % of control

O=C(c1ccccn1)N1CCOCC1
inactive: [5] 101 % of control | [9] 98 % of control and 109 % of control | dose: 100.0 mg/kg/injection, schedule: Q04DX002 (ip), vehicle: saline 96 % of control and 116 % of control | [17] 98 % of control | [6] 105 % of control | [11] 103 % of control and 104 % of control | dose: 200.0 mg/kg/injection, schedule: Q04DX002 (ip), vehicle: saline 95 % of control and 97 % of control | [18] 98 % of control | [7] 97 % of control | [12] 95 % of control and 103 % of control | dose: 400.0 mg/kg/injection, schedule: Q04DX002 (ip), vehicle: saline 96 % of control and 103 % of control | [19] 107 % of control

COc1ccc(OC)c(NC(=O)Nc2cc(OC)c(Cl)cc2OC)c1
inactive: [8] 105 % of control | [10] 94 % of control | [20] 87 % of control

N#CC1(c2ccccc2)CCCC1(C#N)c1ccccc1 (centres undefined)
inactive: dose: 75.0 mg/kg/injection, schedule: Q01DX001 (ip), vehicle: carboxymethylcellulose (CMC) 86 % of control | dose: 150.0 mg/kg/injection, schedule: Q01DX001 (ip), vehicle: carboxymethylcellulose (CMC) 88 % of control | [21] 86 % of control

CCCCCCCC[N+](C)(CCCCCCCC)CCCCCCCC
inactive: dose: 0.04 mg/kg/injection, schedule: Q01DX009 (ip), vehicle: saline 86 % of control | dose: 0.09 mg/kg/injection, schedule: Q01DX009 (ip), vehicle: saline 100 % of control | dose: 0.19 mg/kg/injection, schedule: Q01DX009 (ip), vehicle: saline 101 % of control | dose: 0.19 mg/kg/injection, schedule: Q04DX003 (ip), vehicle: acetone 112 % of control | dose: 0.28 mg/kg/injection, schedule: Q01DX009 (ip), vehicle: saline with Tween-80 114 % of control | dose: 0.39 mg/kg/injection, schedule: Q01DX001 (ip), vehicle: saline with Tween-80 105 % of control | dose: 0.43 mg/kg/injection, schedule: Q01DX009 (ip), vehicle: saline with Tween-80 116 % of control | dose: 0.5 mg/kg/injection, schedule: Q01DX015 (ip), vehicle: saline 97 % of control | dose: 0.64 mg/kg/injection, schedule: Q01DX009 (ip), vehicle: saline with Tween-80 118 % of control | dose: 0.78 mg/kg/injection, schedule: Q01DX001 (ip), vehicle: saline with Tween-80 90 % of control | dose: 1.0 mg/kg/injection, schedule: Q01DX015 (ip), vehicle: saline 95 % of control | dose: 1.56 mg/kg/injection, schedule: Q01DX001 (ip), vehicle: saline with Tween-80 114 % of control

CCCC[C@H]1C(=O)O[C@H](C)[C@H](NC(=O)c2cccc(NC=O)c2O)C(=O)O[C@@H](C)[C@@H]1OC(=O)CC(C)C
inactive: dose: 0.5 mg/kg/injection, schedule: Q01DX001 (ip), vehicle: carboxymethylcellulose (CMC) 92 % of control | dose: 1.0 mg/kg/injection, schedule: Q01DX001 (ip), vehicle: carboxymethylcellulose (CMC) 101 % of control | dose: 2.0 mg/kg/injection, schedule: Q01DX001 (ip), vehicle: carboxymethylcellulose (CMC) 94 % of control

CC(C)OC(=O)Cc1cccc2ccccc12
inactive: dose: 222.0 mg/kg/injection, schedule: Q01DX Z (ip), vehicle: saline 98 % of control | dose: 333.0 mg/kg/injection, schedule: Q01DX Z (ip), vehicle: saline 88 % of control | dose: 500.0 mg/kg/injection, schedule: Q01DX Z (ip), vehicle: saline 95 % of control

NC(CSS(=O)(=O)O)=NC1CCCCC1
inactive: dose: 6.25 mg/kg/injection, schedule: Q04DX002 (ip), vehicle: saline with Tween-80 120 % of control | dose: 12.5 mg/kg/injection, schedule: Q04DX002 (ip), vehicle: saline with Tween-80 113 % of control | dose: 25.0 mg/kg/injection, schedule: Q04DX002 (ip), vehicle: saline with Tween-80 98 % of control

COc1ccc(CN2CCCN(Cc3ccc(OC)cc3OC)C2c2cccnc2)c(OC)c1
inactive: [4] 94 % of control | [5] 100 % of control | [6] 103 % of control | [7] 100 % of control

NC(=O)N1C(=O)C2C3C=CC(O3)C2C1=O (centres undefined)
inactive: [9] 96 % of control | [17] 98 % of control | [11] 95 % of control | [18] 101 % of control | [19] 101 % of control

O=c1c2ncn(C3OC(CO)C(O)C3O)c2nc2nc[nH]n12 (centres undefined)
inactive: dose: 100.0 mg/kg/injection, schedule: Q01DX005 (ip), vehicle: saline 93 % of control | dose: 200.0 mg/kg/injection, schedule: Q01DX005 (ip), vehicle: saline 98 % of control

O=c1[nH]c2ccccc2c2cc3ccccc3cc12
inactive: dose: 88.8 mg/kg/injection, schedule: Q01DX001 (ip), vehicle: carboxymethylcellulose (CMC) 93 % of control and 102 % of control | [14] 93 % of control | dose: 133.4 mg/kg/injection, schedule: Q01DX001 (ip), vehicle: carboxymethylcellulose (CMC) 95 % of control and 102 % of control | [21] 100 % of control and 88 % of control | [15] 93 % of control

Cc1ccc(NC(=O)Nc2ccccc2Cl)cc1Cl
inactive: [8] 100 % of control | [2] 112 % of control | [10] 98 % of control | [3] 96 % of control | [20] 100 % of control | [13] 94 % of control
